# From ChEMBL document CHEMBL4017461, “Investigation of the inhibitory mechanism of apomorphine against MDM2-p53 interaction” (Bioorg Med Chem Lett, 2017)
# Calls of active or inactive are those of the source. No cut-off for these calls is given here.
# What was measured:
# [1] = Inhibition of biotin-labelled P4 peptide binding to MDM2 Cys(Me)77 mutant (unknown origin) by surface plasmon resonance method; set-up: species or system Homo sapiens
# [2] = species on record: Homo sapiens; test: Binding affinity to MDM2 Cys(Me)77 mutant (unknown origin) assessed as adduct formation at 10 uM after 10 mins by MALDI-TOF-MS analysis
# [3] = Drug level in 1:1 PBS/CH3CN mixture treated with R-(-)-apomorphine at 10 mM measured after 24 hrs by HPLC method
# [4] = target: T1, E3 ubiquitin-protein ligase Mdm2 (Homo sapiens, UniProt Q00987); test: Inhibition of biotin-labelled p53 binding to MDM2 (25 to 109 residues) (unknown origin) by surface plasmon resonance method
# [5] = target: T1, E3 ubiquitin-protein ligase Mdm2; test: Binding affinity to MDM2 (25 to 109 residues) (unknown origin) assessed as adduct formation at 10 uM after 10 mins by MALDI-TOF MS analysis
# Target sequence in this assay (Q00987 whole entry, looked up, the tested form may be a part): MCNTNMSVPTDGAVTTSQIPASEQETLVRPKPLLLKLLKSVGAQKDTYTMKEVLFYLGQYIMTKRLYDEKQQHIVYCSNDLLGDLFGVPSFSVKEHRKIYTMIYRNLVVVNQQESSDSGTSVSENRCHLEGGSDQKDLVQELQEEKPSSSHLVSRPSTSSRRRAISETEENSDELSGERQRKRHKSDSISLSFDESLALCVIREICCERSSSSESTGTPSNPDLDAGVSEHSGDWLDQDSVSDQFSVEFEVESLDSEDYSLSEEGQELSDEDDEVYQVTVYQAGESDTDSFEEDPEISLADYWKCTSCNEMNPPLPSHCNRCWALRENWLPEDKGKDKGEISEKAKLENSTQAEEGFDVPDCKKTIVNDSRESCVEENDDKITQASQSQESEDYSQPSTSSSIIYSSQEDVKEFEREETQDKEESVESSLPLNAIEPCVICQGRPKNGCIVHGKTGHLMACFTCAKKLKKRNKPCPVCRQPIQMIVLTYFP
# [6] = Inhibition of biotin-labelled P4 peptide binding to MDM2 Ser77 mutant (unknown origin) by surface plasmon resonance method; set-up: species or system Homo sapiens
# [7] = target: T1, E3 ubiquitin-protein ligase Mdm2; test: Inhibition of biotin-labelled P4 peptide binding to MDM2 (25 to 109 residues) (unknown origin) by surface plasmon resonance method
# Target sequence in this assay (Q00987 whole entry, the tested form may be a part): as the sequence (Q00987 whole entry, looked up, the tested form may be a part) above
# [8] = target: T1, E3 ubiquitin-protein ligase Mdm2; test: Inhibition of biotin-labelled L-p53 binding to L-MDM2 (25 to 109 residues) (unknown origin) by FAM labeled P4 peptide based fluorescence polarization assay
# Target sequence in this assay (Q00987 whole entry, the tested form may be a part): as the sequence (Q00987 whole entry, looked up, the tested form may be a part) above
# [9] = target: T1, E3 ubiquitin-protein ligase Mdm2; test: Inhibition of biotin-labelled D-p53 binding to D-MDM2 (25 to 109 residues) (unknown origin) by FAM labeled P4 peptide based fluorescence polarization assay
# Target sequence in this assay (Q00987 whole entry, looked up, the tested form may be a part): as above
# [10] = Inhibition of biotin-labelled p53 binding to MDM2 Ser77 mutant (unknown origin) by surface plasmon resonance method; set-up: species or system Homo sapiens
Compound,IC50 [1] [µM],inhibition [4],IC50 [6] [µM],IC50 [7] [nM],IC50 [8] [nM],IC50 [4] [µM],other results
CN1CCc2cccc3c4c(cc1c23)C=CC(=O)C4=O,> 30,Active,> 30,1700,–,–,Activity [2]: Active; Drug metabolism [3]: Metabolite detected; Activity [5]: inactive
CN1CCc2cccc3c2[C@@H]1Cc1ccc(O)c(O)c1-3 [(S)APOMORPHINE],–,–,–,–,175,–,–
CN1CCc2cccc3c2[C@H]1Cc1ccc(O)c(O)c1-3 [APOMORPHINE],> 30,inactive,> 30,> 30000,215,–,IC50 [9]: 195 nM
O=C1C=CC(=O)C=C1 [BENZOQUINONE],–,–,–,–,–,13.9,IC50 [10]: > 100 µM
Oc1ccccc1O [CATECHOL],–,–,–,–,–,> 100,–
